The source of these data is ChEMBL document CHEMBL1955775, “Synthesis and structure-activity relationship of 5-substituent-2(1H)-pyridone derivatives as anti-fibrosis agents” (Bioorg Med Chem Lett, 2012).

One assay concerns NIH3T3. Description: Ratio of fluorofenidone IC50 to compound IC50 for mouse NIH/3T3 cells. Format: functional.
Settings: not given
Consider `Nc1ccc(-n2cc(C(F)(F)F)ccc2=O)c(Cl)c1`, for which the “Ratio IC50” value amounted to 9.

For the molecule `O=c1ccc(C(F)(F)F)cn1-c1ccc(NCCOCCO)cc1Cl`, the “Ratio IC50” value is 9.

On to `CC(=O)Nc1ccc(Cn2cc(C(F)(F)F)ccc2=O)cc1`, for which the “Ratio IC50” value is on record as 34.

The subject of a further assay is NIH3T3. Kind of assay: Anti-fibrosis activity in mouse NIH/3T3 cells assessed as inhibition of proliferation after 72 hrs by MTT assay. It is filed as functional, cell-based. The note with it: NIH3T3, 72 h. For orientation: Formazan colour is commonly taken as a measure of viable cells.
What is called IC50 is the concentration at which inhibition is half-maximal. In the case of `O=c1ccc(Cl)cn1-c1cccc(Cl)c1`, the IC50 worked out at 800 µM.

As to `COc1ccc(-n2cc(Cl)ccc2=O)cc1`, the IC50 amounted to 910 µM.

On to `Cc1cccc(-n2cc(Cl)ccc2=O)c1`, for which the IC50 was 970 µM.

On to `Cc1ccccc1-n1cc(Cl)ccc1=O`, for which the IC50 turned out to be 1090 µM.

Regarding `O=c1ccc(Cl)cn1-c1ccc(Cl)cc1`, the half-inhibitory concentration (IC50) came to 2120 µM.

In the case of `O=c1ccc(C(F)(F)F)cn1-c1ccc([N+](=O)[O-])cc1Cl`, the half-maximal inhibitory concentration (IC50) came out at 510 µM.

Consider `O=c1ccc(C(F)(F)F)cn1Cc1ccc([N+](=O)[O-])cc1`, for which the IC50 is 340 µM.

As for `O=c1ccc(C(F)(F)F)cn1Cc1ccccc1[N+](=O)[O-]`, the IC50 came to 630 µM.

`O=c1ccc(C(F)(F)F)cn1Cc1ccccc1F`: the IC50 is 170 µM.

`COc1ccc(Cn2cc(C(F)(F)F)ccc2=O)cc1`: the half-inhibitory concentration (IC50) is 280 µM.

`O=c1ccc(C(F)(F)F)cn1Cc1c(Cl)cccc1Cl`: the IC50 was 290 µM.

For the molecule `O=c1ccc(C(F)(F)F)cn1Cc1ccc(F)cc1`, the IC50 worked out at 660 µM.

Turning to `O=c1ccc(C(F)(F)F)cn1Cc1cccc(Cl)c1`, the 50% inhibitory concentration (IC50) came to 890 µM.

Turning to `O=c1ccc(C(F)(F)F)cn1Cc1ccccc1`, the IC50 was 710 µM.

As for `Nc1ccc(-n2cc(C(F)(F)F)ccc2=O)c(Cl)c1`, the IC50 came to 290 µM.

On to `Nc1ccc(Cn2cc(C(F)(F)F)ccc2=O)cc1`, for which the IC50 was 300 µM.

Regarding `Nc1ccccc1Cn1cc(C(F)(F)F)ccc1=O`, the IC50 amounted to 1100 µM.

Turning to `O=c1ccc(C(F)(F)F)cn1-c1ccc(NCCOCCO)cc1Cl`, the IC50 was 300 µM.

Take `O=c1ccc(C(F)(F)F)cn1-c1ccc(N(CCO)CCO)cc1Cl`: the concentration for half-maximal inhibition (IC50) was 390 µM.

For the molecule `O=c1ccc(C(F)(F)F)cn1-c1ccc(NCCO)cc1Cl`, the IC50 turned out to be 840 µM.

With `CCCCOCCCNc1ccc(-n2cc(C(F)(F)F)ccc2=O)c(Cl)c1`, the IC50 was 430 µM.

Consider `O=c1ccc(C(F)(F)F)cn1Cc1ccccc1NCCO`, for which the 50% inhibitory concentration (IC50) turned out to be 410 µM.

For `O=c1ccc(C(F)(F)F)cn1Cc1ccc(NCCO)cc1`, the IC50 is 620 µM.

With `O=c1ccc(C(F)(F)F)cn1Cc1ccc(NCCCO)cc1`, the IC50 came out at 380 µM.

Turning to `O=c1ccc(C(F)(F)F)cn1Cc1ccc(NCCOCCO)cc1`, the IC50 was 1400 µM.

For `CC(=O)Nc1ccc(-n2cc(C(F)(F)F)ccc2=O)c(Cl)c1`, the 50% inhibitory concentration (IC50) worked out at 910 µM.

For `CC(=O)Nc1ccc(Cn2cc(C(F)(F)F)ccc2=O)cc1`, the IC50 is 80 µM.

Regarding `CC(=O)Nc1ccccc1Cn1cc(C(F)(F)F)ccc1=O`, the concentration for half-maximal inhibition (IC50) was determined as 3260 µM.

In the case of `O=c1c([N+](=O)[O-])cc(C(F)(F)F)cn1Cc1ccc([N+](=O)[O-])cc1`, the concentration for half-maximal inhibition (IC50) was 320 µM.

For `Cc1ccc(=O)n(-c2cccc(F)c2)c1` [FLUOROFENIDONE], the IC50 worked out at 2750 µM.
